Assays:
blackgrass = experiment: Test B preemergence/postemergence greenhouse plant response rating 0 to 10; assay type: in vivo, Alopecurus myosuroides; conditions: 0 to 10 scale
Outline: (§1)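 Postemergence treatment of plants two to eighteen cm tall ran alongside preemergence treatment of planted seed, each using compound in a non-phytotoxic solvent.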

corn = experiment: as above; assay type: in vivo, Zea mays; conditions: 0 to 10 scale
Outline: as §1

cotton [1] = experiment: as above; assay type: in vivo, Gossypium hirsutum; conditions: 0 to 10 scale
Outline: as §1

crabgrass = experiment: as above; assay type: in vivo, Digitaria spp.; conditions: 0 to 10 scale
Outline: as §1

rice = experiment: as above; assay type: in vivo, Oryza sativa; conditions: 0 to 10 scale
Outline: as §1

sorghum = experiment: as above; assay type: in vivo, Sorghum bicolor; conditions: 0 to 10 scale
Outline: as §1

sugar beet = experiment: as above; assay type: in vivo, Beta vulgaris; conditions: 0 to 10 scale
Outline: as §1

wheat [2] = experiment: as above; assay type: in vivo, Triticum aestivum; conditions: 0 to 10 scale
Outline: as §1

wild oat = experiment: as above; assay type: in vivo, Avena fatua; conditions: 0 to 10 scale
Outline: as §1

purple nutsedge = experiment: as above; assay type: in vivo, Cyperus rotundus; conditions: 0 to 10 scale
Outline: as §1

cotton [3] = experiment: Test C preemergence/postemergence greenhouse plant response rating 0 to 100; assay type: in vivo, Gossypium hirsutum; conditions: POSTEMERGENCE; for Plant response rating, Cotton: 0 to 100 scale
Source text: (§2) The compounds evaluated in this test were formulated in a non-phytoxic solvent and applied to the soil surface before plant seedlings emerged (preemergence application), to water that covered the soil surface (flood application), and to plants that were in the one-to-four leaf stage (postemergence application). A sandy loam soil was used for the preemergence and postemergence tests, while a silt loam soil was used in the flood test. Water depth was approximately 2.5 cm for the flood test and was maintained at this level for the duration of the test. Plant species in the preemergence and postemergence tests consisted of barley (Hordeum vulgare), bedstraw (Galium aparine), blackgrass (Alopecurus myosuroides), chickweed (Stellaria media), corn (Zea mays), cotton (Gossypium hirsutum), crabgrass (Digitaria sanguinalis), downy brome (Bromus tectorum), giant foxtail (Setaria faberii), lambsquarters (Chenopodium album), morningglory (Ipomoea hederacea), pigweed ([…]), rape (Brassica napus), ryegrass (Lolium multiflorum), sorghum (Sorghum bicolor), soybean (Glycine max), speedwell (Veronica persica), sugar beet (Beta vulgaris), velvetleaf (Abutilon theophrasti), wheat (Triticum aestivum), wild buckwheat (Polygonum convolvulus), and wild oat (Avena fatua). All plant species were planted one day before application of the compound for the preemergence portion-of this test. Plantings of these species were adjusted to produce plants of appropriate size for the post-emergence portion of the test. […] All plant species were grown using normal greenhouse practices. Visual evaluations of injury expressed on treated plants, when compared to untreated controls, were recorded approximately fourteen to twenty one days after application of the test compound. […] A dash (-) response means no test result.

lambsquarters = experiment: as above; assay type: in vivo, Chenopodium album; conditions: POSTEMERGENCE; for Plant response rating Lambsquarters: 0 to 100 scale
Source text: as §2

pigweed = experiment: as above; assay type: in vivo, Amaranthusretroflexus; conditions: POSTEMERGENCE; for Plant response rating Pigweed: 0 to 100 scale
Source text: as §2

velvetleaf = experiment: as above; assay type: in vivo, Abutilon theophrasti; conditions: POSTEMERGENCE; for Plant response rating, Velvetleaf: 0 to 100 scale
Source text: as §2

wheat [4] = experiment: as above; assay type: in vivo, Triticum aestivum; conditions: POSTEMERGENCE; for Plant response rating, Wheat: 0 to 100 scale
Source text: as §2

wild buckwheat = experiment: as above; assay type: in vivo, Polygonum convolvulus; conditions: POSTEMERGENCE; for Plant response rating, Wild buckwheat: 0 to 100 scale
Source text: as §2

duck salad = experiment: Test C flood test plant response rating 0 to 100; assay type: in vivo, Heteranthera limosa; conditions: for Plant response rating (0 to 100), Duck salad: under POSTEMERGENCE head (flood test species); for Plant response rating Duck salad: flood test species listed under POSTEMERGENCE, 0 to 100 scale
Source text: as §2

barnyardgrass = experiment: Test C flood test plant response rating 0 to 100; assay type: in vivo, Echinochloa crus-galli; conditions: for Plant response rating (0 to 100), Barnyardgrass: under POSTEMERGENCE head (flood test species); for Plant response rating, Barnyardgrass: flood test species listed under POSTEMERGENCE, 0 to 100 scale
Source text: as §2

C=CCN1C(=O)COc2cc(F)c(-c3nn4c(c3Br)CCCC4)cc21 [Compound 41]
Plant response rating, Blackgrass (blackgrass; POSTEMERGENCE, Rate 50 g/ha): 2 | Plant response rating, Blackgrass (blackgrass; POSTEMERGENCE, Rate 200 g/ha): 5 | Plant response rating, Blackgrass (blackgrass; PREEMERGENCE, Rate 50 g/ha): 6 | Plant response rating, Blackgrass (blackgrass; Rate 200 g/ha, PREEMERGENCE): 7 | Plant response rating, Corn (corn; POSTEMERGENCE, Rate 200 g/ha): 5 | Plant response rating, Corn (corn; PREEMERGENCE, Rate 50 g/ha): 0 | Plant response rating, Corn (corn; Rate 200 g/ha, PREEMERGENCE): 2 | Plant response rating, Cotton (cotton [1]; POSTEMERGENCE, Rate 50 g/ha): 10 | Plant response rating, Cotton (cotton [1]; POSTEMERGENCE, Rate 200 g/ha): 10 | Plant response rating, Cotton (cotton [1]; PREEMERGENCE, Rate 50 g/ha): 4 | Plant response rating, Cotton (cotton [1]; Rate 200 g/ha, PREEMERGENCE): 2 | Plant response rating, Crabgrass (crabgrass; POSTEMERGENCE, Rate 50 g/ha): 3 | Plant response rating, Crabgrass (crabgrass; POSTEMERGENCE, Rate 200 g/ha): 5 | Plant response rating, Crabgrass (crabgrass; PREEMERGENCE, Rate 50 g/ha): 0 | Plant response rating, Crabgrass (crabgrass; Rate 200 g/ha, PREEMERGENCE): 6 | Plant response rating, Rice (rice; POSTEMERGENCE, Rate 50 g/ha): 6 | Plant response rating, Rice (rice; PREEMERGENCE, Rate 50 g/ha): 0 | Plant response rating, Rice (rice; Rate 200 g/ha, POSTEMERGENCE): 7 | Plant response rating, Rice (rice; Rate 200 g/ha, PREEMERGENCE): 0 | Plant response rating, Sorghum (sorghum; POSTEMERGENCE, Rate 50 g/ha): 5 | Plant response rating, Sorghum (sorghum; PREEMERGENCE, Rate 50 g/ha): 0 | Plant response rating, Sorghum (sorghum; Rate 200 g/ha, POSTEMERGENCE): 6 | Plant response rating, Sorghum (sorghum; Rate 200 g/ha, PREEMERGENCE): 1 | Plant response rating, Sugar beet (sugar beet; POSTEMERGENCE, Rate 50 g/ha): 10 | Plant response rating, Sugar beet (sugar beet; PREEMERGENCE, Rate 50 g/ha): 10 | Plant response rating, Sugar beet (sugar beet; Rate 200 g/ha, POSTEMERGENCE): 10 | Plant response rating, Sugar beet (sugar beet; Rate 200 g/ha, PREEMERGENCE): 10 | Plant response rating, Wheat (wheat [2]; POSTEMERGENCE, Rate 50 g/ha): 5 | Plant response rating, Wheat (wheat [2]; PREEMERGENCE, Rate 50 g/ha): 1 | Plant response rating, Wheat (wheat [2]; Rate 200 g/ha, POSTEMERGENCE): 5 | Plant response rating, Wheat (wheat [2]; Rate 200 g/ha, PREEMERGENCE): 3 | Plant response rating, Wild oat (wild oat; POSTEMERGENCE, Rate 50 g/ha): 3 | Plant response rating, Wild oat (wild oat; PREEMERGENCE, Rate 50 g/ha): 2 | Plant response rating, Wild oat (wild oat; Rate 200 g/ha, POSTEMERGENCE): 4 | Plant response rating, Nutsedge (purple nutsedge; POSTEMERGENCE, Rate 50 g/ha): 4 | Plant response rating, Nutsedge (purple nutsedge; PREEMERGENCE, Rate 50 g/ha): 0 | Plant response rating, Nutsedge (purple nutsedge; Rate 200 g/ha, POSTEMERGENCE): 4 | Plant response rating, Nutsedge (purple nutsedge; Rate 200 g/ha, PREEMERGENCE): 0 | Plant response rating, Cotton (cotton [3]; 62 g/ha): 100 | Plant response rating, Cotton (cotton [3]; 125 g/ha): 100 | Plant response rating (0 to 100), Cotton (cotton [3]; Rate 16 g/ha): 100 | Plant response rating (0 to 100), Cotton (cotton [3]; Rate 31 g/ha): 100 | Plant response rating Lambsquarters (lambsquarters; 62 g/ha): 100 | Plant response rating Lambsquarters (lambsquarters; 125 g/ha): 100 | Plant response rating (0 to 100), Lambsquarters (lambsquarters; Rate 16 g/ha): 85 | Plant response rating (0 to 100), Lambsquarters (lambsquarters; Rate 31 g/ha): 100 | Plant response rating Pigweed (pigweed; 62 g/ha): 100 | Plant response rating Pigweed (pigweed; 125 g/ha): 100 | Plant response rating (0 to 100), Pigweed (pigweed; Rate 16 g/ha): 90 | Plant response rating (0 to 100), Pigweed (pigweed; Rate 31 g/ha): 100 | Plant response rating, Velvetleaf (velvetleaf; 62 g/ha): 100 | Plant response rating, Velvetleaf (velvetleaf; 125 g/ha): 100 | Plant response rating (0 to 100), Velvetleaf (velvetleaf; Rate 16 g/ha): 100 | Plant response rating (0 to 100), Velvetleaf (velvetleaf; Rate 31 g/ha): 100 | Plant response rating, Wheat (wheat [4]; 62 g/ha): 50 | Plant response rating, Wheat (wheat [4]; 125 g/ha): 60 | Plant response rating (0 to 100), Wheat (wheat [4]; Rate 16 g/ha): 40 | Plant response rating (0 to 100), Wheat (wheat [4]; Rate 31 g/ha): 50 | Plant response rating, Wild buckwheat (wild buckwheat; 62 g/ha): 100 | Plant response rating, Wild buckwheat (wild buckwheat; 125 g/ha): 100 | Plant response rating (0 to 100), Wild buckwheat (wild buckwheat; Rate 16 g/ha): 95 | Plant response rating (0 to 100), Wild buckwheat (wild buckwheat; Rate 31 g/ha): 100 | Plant response rating (0 to 100), Duck salad (duck salad; Rate 16 g/ha): 0 | Plant response rating (0 to 100), Duck salad (duck salad; Rate 31 g/ha): 10 | Plant response rating Duck salad (duck salad; 62 g/ha): 30 | Plant response rating Duck salad (duck salad; 125 g/ha): 30 | Plant response rating (0 to 100), Barnyardgrass (barnyardgrass; Rate 16 g/ha): 90 | Plant response rating (0 to 100), Barnyardgrass (barnyardgrass; Rate 31 g/ha): 100 | Plant response rating, Barnyardgrass (barnyardgrass; 62 g/ha): 100 | Plant response rating, Barnyardgrass (barnyardgrass; 125 g/ha): 100
